pIC50: −log10 of the molar value.

In the first series the target is T1, MUS81/EME1 (Homo sapiens, UniProt Q96NY9).
T1 sequence (Q96NY9 1-551): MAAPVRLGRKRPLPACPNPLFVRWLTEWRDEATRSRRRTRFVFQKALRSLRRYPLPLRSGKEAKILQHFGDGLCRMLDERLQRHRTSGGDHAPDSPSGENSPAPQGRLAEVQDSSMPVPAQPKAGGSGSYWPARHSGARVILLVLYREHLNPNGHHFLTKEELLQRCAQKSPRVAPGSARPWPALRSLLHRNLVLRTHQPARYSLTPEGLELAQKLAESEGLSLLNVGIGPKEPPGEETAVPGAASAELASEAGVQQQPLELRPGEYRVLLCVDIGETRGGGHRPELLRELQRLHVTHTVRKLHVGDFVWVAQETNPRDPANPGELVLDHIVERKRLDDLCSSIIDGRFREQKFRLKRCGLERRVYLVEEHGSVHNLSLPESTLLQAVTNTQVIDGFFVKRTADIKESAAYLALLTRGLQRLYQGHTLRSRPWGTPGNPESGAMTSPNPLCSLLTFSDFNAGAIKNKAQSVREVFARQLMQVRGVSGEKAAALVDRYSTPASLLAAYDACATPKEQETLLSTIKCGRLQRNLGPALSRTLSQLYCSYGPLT
T1 sequence (Q96AY2 1-570 partner): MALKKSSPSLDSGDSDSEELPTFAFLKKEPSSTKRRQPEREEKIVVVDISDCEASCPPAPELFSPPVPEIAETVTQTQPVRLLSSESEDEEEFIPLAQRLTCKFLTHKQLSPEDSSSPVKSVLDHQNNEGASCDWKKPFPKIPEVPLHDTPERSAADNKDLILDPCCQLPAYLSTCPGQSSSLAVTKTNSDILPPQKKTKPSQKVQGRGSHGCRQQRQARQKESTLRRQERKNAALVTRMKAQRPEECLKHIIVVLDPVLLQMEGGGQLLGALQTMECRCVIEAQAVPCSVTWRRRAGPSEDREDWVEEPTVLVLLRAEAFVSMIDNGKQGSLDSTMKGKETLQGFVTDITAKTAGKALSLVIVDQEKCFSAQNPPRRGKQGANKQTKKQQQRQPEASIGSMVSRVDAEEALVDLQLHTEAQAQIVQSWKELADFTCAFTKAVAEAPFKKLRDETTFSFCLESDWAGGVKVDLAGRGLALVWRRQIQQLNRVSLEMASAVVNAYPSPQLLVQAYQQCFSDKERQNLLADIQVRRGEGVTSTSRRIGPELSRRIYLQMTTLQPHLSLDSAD
The series can be described thus: Nuclease inhibition assay, MUS81/EME1 (3′ flap fluorescent DNA substrate, gel readout). In kind it is biochemical. To be noted: 5 nM enzyme, 5 nM 3′ flap substrate, 15 min at 30° C. The source says:
In vitro assays were used for the determination of compound's IC50 values for inhibition of individual nucleases, i.e., MUS81/EME1, FEN1, EXO1, and MRE11. To generate IC50 values, concentration of compound was plotted against relative nuclease activity (in %). The dose-response curves were generated from inhibition data, from 5 point serial dilutions of inhibitory compounds, each in triplicate and fitted to a standard sigmoid curve. IC50 values were derived by standard nonlinear regression analysis.
All tested compounds were diluted in 100% DMSO (dimethylsulfoxide) to prepare working stocks with different concentrations. To keep the DMSO concentration constant in every reaction, always 0.5 μl of the compound stock was added to the reaction buffer. The reaction buffer differs depending on the enzyme tested. Also concentration of the compounds in the reaction depends on the particular enzyme, since the inhibitory effect of the compounds vary between the enzymes. Nevertheless, always doubling dilutions in the range 200-0.8 μM was used. The compound was added as the first component in the reaction buffer, followed by the enzyme addition. Short (15 minutes) pre-incubation step followed before the reaction was initiated by addition of DNA substrate (5 nM).
As a negative control, DNA substrate specific for each particular enzyme without the addition of the enzyme and the compound was used. The positive control contained all components of the reaction, except the compound of interest. However, to compensate for solvent effects, DMSO (at a final concentration of 2.5%) was included in the reaction.
For this experiment we prepared short fluorescently labeled oligonucleotide-based DNA substrates with specific structures reflecting the biochemical activities of tested individual nucleases (Table 1). These substrates were prepared by annealing of synthetic oligonucleotides purchased from VBC Biotech. Composition of each substrate is indicated below the table; the corresponding oligonucleotides were combined in equimolar ratios. For visualization, each substrate was labeled by fluorescent dye (fluorescein), which can be detected in the gel using appropriate imaging system (FLA-9000, Fuji) with filters for particular wavelengths (excitation: 485 nm, emission: 535 nm).
Nuclease assays were performed in reaction buffer specific for particular enzyme: MUS81/EME1 (50 mM Tris pH=7.5, 5 mM MgCl2, 1 mM DTT a 100 μg/ml BSA), MRE11 (30 mM Bis-Tris pH=7.0, 50 μg/ml BSA, 1 mM DTT a 250 μM MnCl2), EXO1 and FEN1 (50 mM Tris pH=7.5, 1 mM MgCl2, 1 mM DTT a 100 μg/ml BSA). The individual reactions were prepared by mixing with highly purified enzyme (MUS81/EME1 (5 nM), MRE11 (5 nM), EXO1 (5 nM) or FEN1 (10 nM); purification protocols described below), and different concentration of inhibitor (mentioned above) in corresponding reaction buffer. The final volume of the reaction was 20 μl. After short pre-incubation (15 minutes at room temperature), the reaction was initiated by addition of 5 nM of corresponding fluorescently labeled DNA substrate (3′ flap for MUS81/EME1, 5′ flap for MRE11 and FEN1, 3′ OH for EXO1; see FIG. 1) and incubated for 15 minutes at 30° C. Next, the reaction was stopped and deproteinized by addition of 2 μl of stop buffer, containing 0.1% SDS and 500 μg/ml proteinase K, and incubated for additional 5 minutes at 30° C. Then the loading dye, containing glycerol (60% glycerol, 10 mM Tris pH=7.4, 60 mM EDTA a 0.1% Orange G), was added to each reaction ( 1/10 of the reaction volume), and the whole mixture was subjected to electrophoresis in 10% polyacrylamide native gel (110 V, 40 min, 1× TBE). Fluorescently labeled DNA was detected by FLA-9000 scanner (Fuji) and the result was evaluated using Multi-Gauge V3.2 software (Fuji).
The Mus81/Eme1 expression construct was a kind gift from Dr. Steve West (Cancer Research UK). Briefly, the nuclease complex was purified as follows. […]
The term pIC50 denotes the negative decadic logarithm of the IC50, by convention in mol/L. On to `Nc1c(-c2nc3ccccc3[nH]2)nnc2cc(CO)nn12` [Preparative Example 6], for which the pIC50 was < 4.30.

Turning to `Cn1ccc(-c2cnn3c(O)c(-c4nc5ccccc5n4Cc4ccccc4)nnc23)n1` [Preparative Example 17E], the pIC50 was > 4.30.

`CCc1nn2c(N)c(-c3nc4ccccc4[nH]3)nnc2c1-c1cccc(-c2ccccc2)c1` [Preparative Example 5Y]: the pIC50 was > 5.00.

With `CCc1cc2nnc(-c3nc4ccccc4[nH]3)c(N)n2n1` [Preparative Example 5B], the pIC50 is > 4.30.

As to `Oc1c(-c2nc3ccccc3n2Cc2ccccc2)nnc2c(-c3ccncc3)cnn12` [Preparative Example 17D], the negative-log IC50 (pIC50) is > 5.00.

For `CC(C)c1nn2c(N)c(-c3nc4ccccc4[nH]3)nnc2c1-c1ccc(F)cc1` [Preparative Example 5D], the negative-log IC50 (pIC50) is > 4.30.

Take `Nc1c(-c2nc3ccccc3[nH]2)nnc2ccnn12` [Preparative Example 5O]: the pIC50 is < 4.30.

Regarding `CCc1nn2c(N)c(-c3nc4ccccc4[nH]3)nnc2c1-c1cccc(C(=O)O)c1` [Preparative Example 5Zb], the pIC50 was > 5.00.

With `CS(=O)(=O)c1ccc(-c2cnn3c(O)c(-c4nc5ccccc5n4Cc4ccccc4)nnc23)cc1` [Preparative Example 17A], the pIC50 was > 5.00.

On to `CCc1nn2c(N)c(C(N)=O)nnc2c1-c1ccc(F)cc1` [Preparative Example 12], for which the pIC50 is < 4.30.

As for `CCc1nn2c(N)c(C#N)nnc2c1-c1ccc(F)cc1` [Preparative Example 11], the pIC50 was < 4.30.

For the molecule `Oc1c(-c2nc3ccccc3n2Cc2ccccc2)nnc2c(-c3ccsc3)cnn12` [Preparative Example 17C], the pIC50 was > 4.30.

For `CCc1nn2c(N)c(-c3nc4ccccc4[nH]3)nnc2c1-c1cccc(C(=O)OC)c1` [Preparative Example 5Z], the pIC50 is > 5.00.

Regarding `O=[N+]([O-])c1ccc(-c2cnn3c(O)c(-c4nc5ccccc5n4Cc4ccccc4)nnc23)cc1` [Preparative Example 17B], the negative logarithm of the IC50 (pIC50) was > 5.00.

As for `CS(=O)(=O)c1ccc(-c2cnn3c(O)c(-c4nc5ccccc5[nH]4)nnc23)cc1` [Preparative Example 18A], the pIC50 was > 5.00.

In the case of `Nc1c(-c2nc3ccccc3[nH]2)nnc2cc(-c3ccccc3Cl)nn12` [Preparative Example 5G], the pIC50 was > 4.30.

`CCc1nn2c(O)c(-c3nc4cc(C)c(C)cc4[nH]3)nnc2c1-c1ccc(F)cc1` [Preparative Example 21]: the negative-log IC50 (pIC50) is > 5.00.

For the molecule `CCc1cc2nnc(-c3nc4ccccc4n3Cc3ccccc3)c(N)n2n1` [Preparative Example 5N], the pIC50 was > 4.30.

As to `CC(C)(C)c1cc2nnc(-c3nc4ccccc4[nH]3)c(N)n2n1` [Preparative Example 5F], the pIC50 was > 4.30.

In the case of `Nc1c(-c2nc3ccccc3[nH]2)nnc2c(-c3ccc(F)cc3)cnn12` [Preparative Example 5P], the negative logarithm of the IC50 (pIC50) was < 4.30.

For the molecule `CCc1nn2c(N)c(-c3nc4ccccc4n3Cc3ccccc3)nnc2c1-c1ccc(F)cc1` [Preparative Example 5M], the pIC50 is > 4.30.

On to `CCc1nn2c(O)c(-c3nc4ccccc4[nH]3)nnc2c1-c1ccc(F)cc1` [Preparative Example 8A], for which the negative-log IC50 (pIC50) was > 5.00.

Turning to `Cn1ccc(-c2cnn3c(O)c(-c4nc5ccccc5[nH]4)nnc23)n1` [Preparative Example 18B], the pIC50 was > 4.30.

Tested on in the next series: not given
Test: not given
Conditions: not given
As usually defined, the melting point is the temperature, or range, at which the solid turns liquid. As to `Nc1c(-c2nc3ccccc3[nH]2)nnc2cc(-c3ccccc3-c3ccccc3)nn12` [Preparative Example 5L], the melting point was > 250 °C.

Turning to `CCc1nn2c(N)c(-c3nc4ccccc4[nH]3)nnc2c1Br` [Preparative Example 13], the melting point was > 250 °C.

For the molecule `CCc1nn2c(N)c(C#N)nnc2c1-c1ccc(F)cc1` [Preparative Example 11], the melting point was > 215 °C (dec.).

`CC(C)(C)[Si](OCc1cc2nnc(-c3nc4ccccc4[nH]3)c(N)n2n1)(c1ccccc1)c1ccccc1` had a melting point of 233.5 to 234 °C.

Regarding `Nc1c(-c2nc3ccccc3[nH]2)nnc2cc(C=O)nn12` [Preparative Example 7], the melting point is > 250 °C.
